Laboratory results reported in patent publication US8846656B2, “Tetrahydropyrido-pyridine and tetrahydropyrido-pyrimidine compounds and use thereof as C5a receptor modulators” (Novartis AG, priority 2011, dated 2014).
Where two headings read alike, the source gives them in different places.

Experiments:
CD11b = assay: Human whole blood CD11b up-regulation assay; type: cell-based; conditions: 2 nM human C5a, CD15+ granulocytes, read-out: hCD11b IC50
Procedure: Whole blood was collected in sodium heparin tubes and the assay started within 2 hours of the blood draw. The blood was incubated with compounds in 1% DMSO (dimethyl sulfoxide) at room temperature for 10 minutes with gentle rocking. 2 nM of human C5a was then added for 15 minutes at room temperature with gentle rocking. Following the C5a incubation period cells were washed once with cold FACS (fluorescence-activated cell sorting) buffer (phosphate buffered saline+0.5% bovine serum albumin) FITC (fluorescein isothiocyanate) mouse anti-human CD15 and PE-Cy5 (phycoerythrin-cyanine 5) mouse anti-human CD11b antibodies (Becton Dickinson) were gently mixed with the cells and allowed to incubate for 30 minutes on ice protected from the light. Cells were then washed three times with cold FACS buffer. Red blood cells (RBC) were lysed by incubating with BD FACS lysis buffer (Becton Dickinson) for 10 minutes at room temperature. Cells were pelleted and the lysing procedure was repeated until all RBCs were lysed. The remaining leukocytes were resuspended in BD lysis buffer. Samples were acquired on the LSR^11 flow cytometer and 10,000 events of the CD15+ granulocyte population were collected. The CD11b median fluorescence intensity of the CD 15+ cell population was evaluated using FACSDiva software (Becton Dickinson).

human C5aR = human C5aR (Homo sapiens (Human), UniProt P21730); assay: FLIPR assay: inhibition of C5a-mediated calcium mobilization; type: cell-based; conditions: stable cell line over expressing human C5aR & Gα15, human C5a at EC50 (0.1-0.25 nM)
Method in brief: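 Compounds were added for 30 minutes at room temperature (1% DMSO) ahead of C5a stimulation. Before this, cells were dye-loaded for 1 h at 37° C: calcium 5 with 2.5 mM probenecid in HBSS, 20 mM HEPES, 0.1% BSA. Cells co-express human C5aR and Gα15; read-out is FLIPR Tetra calcium flux.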

Sequence of human C5aR (P21730 whole entry): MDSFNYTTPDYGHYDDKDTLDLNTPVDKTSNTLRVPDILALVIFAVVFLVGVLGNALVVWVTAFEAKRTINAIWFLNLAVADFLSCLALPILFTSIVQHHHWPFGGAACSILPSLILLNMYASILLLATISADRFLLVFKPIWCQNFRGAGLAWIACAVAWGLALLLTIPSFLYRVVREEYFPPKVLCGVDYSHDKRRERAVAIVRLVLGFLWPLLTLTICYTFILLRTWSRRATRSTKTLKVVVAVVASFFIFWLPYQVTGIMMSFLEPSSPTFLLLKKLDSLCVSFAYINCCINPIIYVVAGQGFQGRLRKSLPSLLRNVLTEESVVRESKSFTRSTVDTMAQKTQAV

SMILES	IC50 (CD11b; Homo sapiens) [nM]	IC50 (human C5aR) [nM]	IC50 (CD11b) [nM]
CO[C@H]1CCN(c2nc(-c3c(C(C)C)ccc4[nH]ncc34)nc3c2CN(c2cc(C4(C)COC4)ccc2C)CC3)CC1(C)C [Example 19-AC, (S)-2-(5-isopropyl-1H-indazol-4-yl)-4-(4-methoxy-3,3-dimethylpiperidin-1-yl)-6-(2-methyl-5-(3-methyloxetan-3-yl)phenyl)-5,6,7,8-tetrahydropyrido[4,3-d]pyrimidine]	50	4	–
CO[C@H]1C[C@H]2CC[C@@H](C1)N2c1nc(-c2c(C)ccc3[nH]nc(C)c23)nc2c1CN(c1c(F)c(C3CC3)nn1C)CC2 [Example 56-B]	45	2	–
CO[C@@H]1CCN(c2nc(-c3c(C)ccc4[nH]nc(C)c34)nc3c2CN(c2c(Cl)c(C(F)(F)F)nn2C)CC3)CC1(C)C [Example 55-N, (R)-6-(4-chloro-1-methyl-3-(trifluoromethyl)-1H-pyrazol-5-yl)-2-(3,5-dimethyl-1H-indazol-4-yl)-4-(4-methoxy-3,3-dimethylpiperidin-1-yl)-5,6,7,8-tetrahydropyrido[4,3-d]pyrimidine]	12	6	–
CC(=O)N1CCN(c2nc(-c3cccc4[nH]cc(C)c34)nc3c2CN(c2cc(C4CC4)ccc2C)CC3)[C@H](C)C1 [Example 25-C, (R)-1-(4-(6-(5-cyclopropyl-2-methylphenyl)-2-(3-methyl-1H-indol-4-yl)-5,6,7,8-tetrahydropyrido[4,3-d]pyrimidin-4-yl)-3-methylpiperazin-1-yl)ethanone]	183	5	–
CO[C@@H]1CCN(c2nc(-c3c(C)ccc4[nH]nc(C)c34)nc3c2CN(c2cc(Cl)ccc2C)CC3)[C@H](C)C1 [Example 21-AG, 6-(5-chloro-2-methylphenyl)-2-(3,5-dimethyl-1H-indazol-4-yl)-4-((2R,4R)-4-methoxy-2-methylpiperidin-1-yl)-5,6,7,8-tetrahydropyrido[4,3-d]pyrimidine]	22	1	–
Cc1ccc(C(C)C)cc1N1CCc2nc(-c3c(C)ccc4[nH]nc(C)c34)nc(N3CC(N(C)C)C3)c2C1 [Example 65-A, 1-(2-(3,5-Dimethyl-1H-indazol-4-yl)-6-(5-isopropyl-2-methylphenyl)-5,6,7,8-tetrahydropyrido[4,3-d]pyrimidin-4-yl)-N,N-dimethylazetidin-3-amine]	30	1	–
[2H]C1([2H])c2c(C)cc(-c3c(CC)cccc3CC)nc2CCN1c1c(Cl)c(C2CC2)nn1C [Example 42-I, 6-(4-chloro-3-cyclopropyl-1-methyl-1H-pyrazol-5-yl)-2-(2,6-diethylphenyl)-4-methyl-5,6,7,8-tetrahydro(5,5-^2H2)-1,6-naphthyridine]	2120	14	–
[2H]C1([2H])c2c(C)cc(-c3c(C)ccc4[nH]ncc34)nc2CCN1c1cc(OC)ccc1C [Example 45, 6-(5-Methoxy-2-methylphenyl)-4-methyl-2-(5-methyl-1H-indazol-4-yl)-5,6,7,8-tetrahydro(5,5-^2H2)-1,6-naphthyridine]	583	27	–
Cc1ccc(C(C)C)cc1N1CCc2nc(-c3cccc4[nH]cc(C)c34)nc(N3CCN(S(C)(=O)=O)[C@H](C)C3)c2C1 [Example 29, (R)-6-(5-isopropyl-2-methylphenyl)-2-(3-methyl-1H-indol-4-yl)-4-(3-methyl-4-(methylsulfonyl)piperazin-1-yl)-5,6,7,8-tetrahydropyrido[4,3-d]pyrimidine]	300	2	–
CO[C@H]1CCN(c2nc(-c3cccc4[nH]cc(C)c34)nc3c2CN(c2cc(C(C)C)ccc2C)CC3)C[C@@H]1C [Example 17-AY, 6-(5-isopropyl-2-methylphenyl)-4-((3S,4S)-4-methoxy-3-methylpiperidin-1-yl)-2-(3-methyl-1H-indol-4-yl)-5,6,7,8-tetrahydropyrido[4,3-d]pyrimidine]	45	9	–
CO[C@H]1CCN(c2nc(-c3cccc4[nH]cc(C)c34)nc3c2CN(c2cc(C(C)C)ccc2C)CC3)C[C@H]1C (racemic) [Example 17-AQ, racemic 6-(5-isopropyl-2-methylphenyl)-4-(4-methoxy-3-methylpiperidin-1-yl)-2-(3-methyl-1H-indol-4-yl)-5,6,7,8-tetrahydropyrido[4,3-d]pyrimidine]	277	16	–
CO[C@@H]1CCN(c2nc(-c3c(C)ccc4[nH]nc(C)c34)nc3c2CN(c2c(F)c(C(F)F)nn2C)CC3)CC1(C)C [Example 56-F, (R)-6-(3-(difluoromethyl)-4-fluoro-1-methyl-1H-pyrazol-5-yl)-2-(3,5-dimethyl-1H-indazol-4-yl)-4-(4-methoxy-3,3-dimethylpiperidin-1-yl)-5,6,7,8-tetrahydropyrido[4,3-d]pyrimidine]	11	1	–
CCn1nc(C2CC2)c(Cl)c1N1CCc2nc(-c3c(C)ccc4[nH]nc(C)c34)nc(N3CCOC[C@H]3C)c2C1 [Example 70-G, (R)-4-(6-(4-Chloro-3-cyclopropyl-1-ethyl-1H-pyrazol-5-yl)-2-(3,5-dimethyl-1H-indazol-4-yl)-5,6,7,8-tetrahydropyrido[4,3-d]pyrimidin-4-yl)-3-methylmorpholine]	19	9	–
CO[C@@H]1CCN(c2nc(-c3c(C)cccc3C)nc3c2CN(c2cc(C(C)C)ccc2C)CC3)[C@H](C)C1 [Example 21-D, 2-(2,6-Dimethylphenyl)-6-(5-isopropyl-2-methylphenyl)-4-((2R,4R)-4-methoxy-2-methylpiperidin-1-yl)-5,6,7,8-tetrahydropyrido[4,3-d]pyrimidine]	7	0.5	–
Cc1ccc(C(C)C)cc1N1CCc2nc(-c3c(C)ccc4[nH]nc(C)c34)nc(N3CCCC[C@H]3C)c2C1 [Example 21-AM, (R)-2-(3,5-dimethyl-1H-indazol-4-yl)-6-(5-isopropyl-2-methylphenyl)-4-(2-methylpiperidin-1-yl)-5,6,7,8-tetrahydropyrido[4,3-d]pyrimidine]	7	1	–
CC(=O)N1CCN(c2nc(-c3cccc4[nH]cc(C)c34)nc3c2CN(c2cc(C4(C)COC4)ccc2C)CC3)[C@H](C)C1 [Example 26-B, (R)-1-(3-Methyl-4-(2-(3-methyl-1H-indol-4-yl)-6-(2-methyl-5-(3-methyloxetan-3-yl)phenyl)-5,6,7,8-tetrahydropyrido[4,3-d]pyrimidin-4-yl)piperazin-1-yl)ethanone]	907	20	–
Cc1ccc(C(C)C)cc1N1CCc2nc(-c3cccc4[nH]cc(C)c34)nc(N3CCN(CC(N)=O)[C@H](C)C3)c2C1 [Example 24-J, (R)-2-(4-(6-(5-isopropyl-2-methylphenyl)-2-(3-methyl-1H-indol-4-yl)-5,6,7,8-tetrahydropyrido[4,3-d]pyrimidin-4-yl)-2-methylpiperazin-1-yl)acetamide]	423	8	–
CO[C@H]1CCN(c2nc(-c3cccc4[nH]cc(C)c34)nc3c2CN(c2cc(C(C)C)ccc2C)CC3)[C@H](C)C1 [Example 17-P, 6-(5-isopropyl-2-methylphenyl)-4-((2R,4S)-4-methoxy-2-methylpiperidin-1-yl)-2-(3-methyl-1H-indol-4-yl)-5,6,7,8-tetrahydropyrido[4,3-d]pyrimidine]	70	13	–
CCOC1CN(c2nc(-c3c(C)ccc4[nH]nc(C)c34)nc3c2CN(c2c(Cl)c(C4CC4)nn2C)CC3)C1 [Example 68-B, 6-(4-Chloro-3-cyclopropyl-1-methyl-1H-pyrazol-5-yl)-2-(3,5-dimethyl-1H-indazol-4-yl)-4-(3-ethoxyazetidin-1-yl)-5,6,7,8-tetrahydropyrido[4,3-d]pyrimidine]	17	2	–
Cc1ccc(C(C)C)cc1N1CCc2nc(-c3c(C)cccc3C)nc(N3C[C@H](C)N(CC(N)=O)C[C@H]3C)c2C1 [Example 28-B]	–	3	107
CO[C@@H]1CCN(c2nc(-c3c(C)cccc3Cl)nc3c2CN(c2cc(C(C)C)ccc2C)CC3)C[C@H]1C [Example 19-AH, 2-(2-chloro-6-methylphenyl)-6-(5-isopropyl-2-methylphenyl)-4-((3R,4R)-4-methoxy-3-methylpiperidin-1-yl)-5,6,7,8-tetrahydropyrido[4,3-d]pyrimidine]	17	4	–
CO[C@H]1CCN(c2nc(-c3c(C)cccc3C)nc3c2CN(c2cc(C(F)(F)F)ccc2C)CC3)CC1(C)C [Example 19-AB, (S)-2-(2,6-dimethylphenyl)-4-(4-methoxy-3,3-dimethylpiperidin-1-yl)-6-(2-methyl-5-(trifluoromethyl)phenyl)-5,6,7,8-tetrahydropyrido[4,3-d]pyrimidine]	26	17	–
Cc1cc(-c2c(C(C)C)ccc3[nH]ncc23)nc2c1CN(c1cc(C3CC3)nn1C)CC2 [Example 46-A, 6-(3-Cyclopropyl-1-methyl-1H-pyrazol-5-yl)-2-(5-isopropyl-1H-indazol-4-yl)-4-methyl-5,6,7,8-tetrahydro-1,6-naphthyridine]	1990	20	–
